Assay results as given in patent US20070135997A1, “Methods for analysis of biological dataset profiles” (priority 2003, published 2007).
“Also recorded” adds a separate entry of the source.

Tested on: VCAM-1 expression in human umbilical vein endothelial cells (HUVEC)
Assay: Cell-based ELISA of VCAM-1 expression in cytokine-stimulated, gene-transduced endothelial cells
Source text: Cytokines, antibodies, and cell culture. Recombinant human IFN-γ, TNF-α, and IL-1βwere from R&D Systems, Murine IgG from Sigma, Mouse anti-human ICAM-1 (clone B4H10) from Beckman Coulter and mouse anti-human E-selectin (clone ENA1) from HyCult Biotechnology. Unconjugated mouse antibodies against human VCAM-1 (clone 51-10C9), CD31 (clone WM-59), HLA-DR (clone G46-6), MIG (clone B8-77), and MCP-1 (clone 5D3-F7) were from BD Biosciences. Mouse anti-human IL-8 (clone 6217.111) was from R&D Systems. PD098059 was from Calbiochem. EGM-2 medium and required supplements were from Clonetics. Human umbilical vein endothelial cells (HUVEC) were from Clonetics; cultured in microtiter plates in EGM-2 medium containing manufacturer's supplements plus 2% heat-inactivated fetal bovine serum. […] PD098059 (3.7 μM final concentration) was added 1 hr before stimulation and was present during the whole 24 hr stimulation period.
Cell-based ELISAs. Cell-based ELISAs were carried out as previously described. Briefly, microtiter plates containing treated and stimulated HUVEC were blocked, and then incubated with primary antibodies or isotype control antibodies (0.01-0.5 μg/ml) for 1 hr. After washing, plates were then incubated with a peroxidase-conjugated anti-mouse IgG secondary antibody (Promega) for 1 hr. Plates were washed and developed with TMB substrate (Clinical Science Products) and the optical density (OD) was read at 450 nm (subtracting the background absorbance at 650 nm) on a SpectraMAX 190 plate reader (Molecular Devices).
Retroviral gene transduction. Test genes were cloned into a vector derived from the MoMLV-based vector pFB (Stratagene) downstream of the MoMLV LTR. A truncated form of the human nerve growth factor receptor (NGFR) preceded by an internal ribosomal entry site was used as a marker gene. Retroviral vector plasmid DNA was transfected into AmphoPack-293 cells (Clontech) by a modified calcium phosphate method according to the manufacturer's protocol (MBS transfection kit, Stratagene). Cell supernatants were harvested 48 hours post-transfection, filtered to remove cell debris (0.45 μm), and transferred onto exponentially growing HUVEC. DEAE dextran (10 μg/ml) was added to facilitate transduction. After 5-8 hr, the viral supernatant was removed and cells were cultured for an additional 40 hours. Gene transfer efficiency was determined by flow cytometric analysis using an NGFR-specific monoclonal antibody and was typically ≧70%.

With “IL-1β: Recombinant human IL-1β from R&D Systems, pro-inflammatory cytokine” the “Effect of IL-1β on TNF-induced VCAM-1 expression” value (HUVEC stimulated with 10 ng/ml TNF + 1 ng/ml IL-1) was “reduce the level of VCAM-1 expression” and the “Effect of IL-1β on TNF-induced VCAM-1 expression” value (HUVEC stimulated with 10 ng/ml TNF + 1 ng/ml IL-1, listed as IL-1) was “modulates the VCAM-1 expression induced by TNF”.
`COc1cccc(-c2cc(=O)c3ccccc3o2)c1N` [PD098059] was tested, and the “Effect on VCAM-1 expression when the RAS/MAPK pathway is activated” value (HUVEC over-expressing MYD88, RAS*, MEK1* or MEK2* or IL-1β-stimulated, PD098059 3.7 μM added 1 hr before 24 hr cytokine stimulation) was “reversed the effect of MYD88 or RAS* over-expression; also recorded: increases VCAM-1 expression” and the “Effect on VCAM-1 expression in TNF-α-treated cells” value (HUVEC treated with TNF-α, PD098059 3.7 μM added 1 hr before 24 hr stimulation) was “no effect”.
